# Source: a melting point compilation (Tetko et al.; mined from patent text by program, amines drawn as free bases though some values may be those of a salt)
row,SMILES,melting point [°C]
1,C=CCN(CCC12CC3CC(CC(C3)C1)C2)C(=O)NCCCc1ccncc1,99 to 102
2,COc1ccccc1N1CCN(S(=O)(=O)c2ccc([N+](=O)[O-])cc2)CC1,202 to 204
3,CNc1c2c(nc3ccccc13)CCCC2O (stereo not given),160 to 161
4,c1ccc2c(c1)c1c(N3CCCC3)nc(N3CCCC3)nc1n2CCN1CCOCC1,138 to 139
5,CNC(=O)[C@@H](NC(=O)[C@@H](CC(=O)OCc1ccccc1)n1ccc(-c2ccncc2)c1)C(C)(C)C,130 to 133
6,CCOC(=O)c1cn(-c2c(OCc3ccccc3)cccc2OCc2ccccc2)cn1,125 to 126
7,CSc1nccc(C(C)=O)n1,35
8,COc1ccc([C@@H]2Sc3ccccc3N(CCN(C)C)C(=O)[C@@H]2OC(=O)Nc2ccccc2)cc1 (relative stereo),106 to 108
9,CON=Cc1c(S(N)(=O)=O)ccn1C,120 to 122
10,CC(C)(C)c1cc(C=C2SCN(CCO)C2=O)cc(C(C)(C)C)c1O,131 to 135
11,COCCNc1ccnc2c(NC(=O)c3c(Cl)cccc3Cl)cccc12,166
12,CCC1(CO)COC(C(C)(C)Oc2ccc(Cl)cc2)=N1 (stereo not given),94 to 95
13,C=C1CC2C3CCC4=CC(=O)C=CC4(C)C3=CCC2(C)C1=O (stereo not given),157 to 160
14,CCOc1cc(-c2cc(C(F)F)n3ncc(C(=O)Nc4cccc(S(=O)(=O)N5CCOCC5)c4)c3n2)ccc1C(F)(F)F,231
15,C=CC[C@@H](C(=O)N[C@H](C(=O)OCc1ccccc1)C(C)(C)C)[C@@H]1OC(C)(C)OC1=O,67 to 70
16,C#CCOc1cc(-n2nc(CC)c(CC)c2CC)c(F)cc1Cl,62 to 65
17,CC(C)NC(=O)CC(=O)C=Cc1ccccc1[N+](=O)[O-],132 to 135
18,Clc1ccc(-n2c(Cn3ccnc3)nc3ccccc32)cc1,121 to 122
19,COC=C(C(=O)OC)c1ccccc1C=Cc1cscn1,117
20,COC(=O)c1ccc(C(=NO)c2ccc(C(=O)OC)cc2)cc1,177 to 178
21,CC1(CN2CCC(C(=O)c3ccc(OC(F)(F)F)cc3)CC2)Cn2cc([N+](=O)[O-])nc2O1 (stereo not given),113 to 115
22,CCOc1ccc(/C=C(\NC(=O)c2ccc(OCC(C)C)cc2)C(=O)NCCO)cc1,124 to 125
23,CCOC(=O)c1cn(Cc2csnn2)c2cc(F)c(F)cc2c1=O,234 to 237
24,O=C1NCCc2c(-c3cccc(C(F)(F)F)c3)[nH]c3cccc1c23,212 to 214
25,O=C1c2ccccc2CN1CCCCSc1ccncc1,57 to 58
26,COc1ccc(N2C(=O)[C@H](O)[C@@H]2CC2CCCCC2)cc1,152 to 155
27,CC(C)Nc1nc(-n2cc(C(=O)O)c(=O)c3cc(F)c(F)c(Cl)c32)c(F)cc1F,226 to 230

# Other lines, results leading:
row,melting point [°C],SMILES
1,128 to 130,O=C(CCl)N1CC=C(c2cccc(C(F)(F)F)c2)n2ncc(Br)c21
2,212 to 214,COc1ccc(C(=O)Nc2ccc(F)c(F)c2)cc1NS(=O)(=O)c1cccc(N)c1
3,119 to 120,CCOc1ccc(C2=NN(C(=O)c3cccc([N+](=O)[O-])c3)CCC2)cc1OCC
4,308 to 312,O=C1c2c(Cl)cccc2-c2cc(O)cc3cccc1c23
5,190 to 191,Cc1cc(C)cc(S(=O)c2cccc(N)c2C#N)c1 (stereo not given)
6,82 to 84,Cc1ccc(C)n1C(C)c1ncccc1F (stereo not given)
7,224 to 226,CC(C)c1ccc(N2CC(=O)N(c3cccc(C(=O)O)c3)C2=O)cc1
8,84 to 87,CC(C)c1nc(-c2cc3cc(OCCNC[C@H](O)c4cccc(Cl)c4)ccc3o2)no1
9,68,Nc1cccc(OCc2ccccc2)c1N
10,112,COCC1(C)CCCOc2cc(C#Cc3ccc(C(=O)O)cc3)ccc21 (stereo not given)
11,266 to 268,Cc1ccc2c(c1)S(=O)(=O)N=C(NC(C)C)N2
12,276 to 278,COC(=O)c1cc(=O)c2oc3ccc(Cl)cc3c(=O)c2n1C
13,187 to 188,Cc1ccc(CSc2nc3cc4c(cc3[nH]2)OCO4)nc1
